From ChEMBL document CHEMBL1201862, “PubChem BioAssay data set” (2004)
One block for each compound: values may come before it. The source made the active and inactive calls. Unless noted, no cut-off for these calls is given here.

Assays:
[1] = molecular target: Ubiquitin carboxyl-terminal hydrolase BAP1 (Homo sapiens, UniProt Q92560); experiment: BAP1 deubiquitinase inhibitors, dose response, biochemical (AID 714); assay type: functional
[2] = molecular target: Neuropeptide Y receptor type 2 (Homo sapiens, UniProt P49146); assay type: functional, cell-based;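 note: HEK293 cells expressing the receptor and a CNG channel; stimulus was NPY near EC95 followed by isoproterenol to raise cAMP; antagonist potency measured as restoring cAMP signal that NPY suppresses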
[3] = inhibitors of intracellular T. cruzi replication, confirmation, NIH3T3 host cells, beta-gal luminescence (AID 2044); assay type: functional, cell-based;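 note: intracellular parasites grown in NIH/3T3 mouse fibroblasts as host cells; luminescent beta-galactosidase reporter signal from transgenic T. cruzi replicating inside host cells; inhibitors lower the luminescence signal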
[4] = molecular target: Neuropeptide Y receptor type 1 (Homo sapiens, UniProt P25929); assay type: functional;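 note: HEK293 cells with a CNG channel challenged with NPY then isoproterenol; potency as antagonist that reverses NPY suppression of cAMP signal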
[5] = cytotoxicity toward NIH3T3 fibroblasts, dose response, counter-screen, cell-based, ATP luminescence, mouse fibroblasts (AID 2010); assay type: functional;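 note: cells exposed to compound for about 90 hours before reading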
[6] = Luminescence Cell-Based Dose Retest to Confirm Inhibitors of Cancer Stem Cells. [Related pubchem assays (depositor defined):AID2717, AID2721]; assay type: functional; conditions: Homo sapiens
[7] = molecular target: T1, Metabotropic glutamate receptor 4 (Homo sapiens, UniProt Q14833); experiment: Fold shift mGlu4, mGlu7, mGlu8 using calcium mobilization.; assay type: functional
[8] = molecular target: Metabotropic glutamate receptor 6 (Homo sapiens, UniProt O15303); experiment: mGlu6 agonist response modulation at 10 µM, profiling panel, selectivity assay for mGlu8/mGlu7 PAM project, cell-based, GIRK thallium flux, agonist curve fold shift (AID 743421); assay type: functional
[9] = molecular target: T2, Metabotropic glutamate receptor 7 (Homo sapiens, UniProt Q14831); experiment: Fold shift mGlu7 using calcium mobilization.; assay type: functional
[10] = molecular target: Metabotropic glutamate receptor 3 (Homo sapiens, UniProt Q14832); experiment: Selectivity Studies of mglur8 probe at mglur3.; assay type: functional
[11] = molecular target: Metabotropic glutamate receptor 5 (Homo sapiens, UniProt P41594); experiment: mGlu5 glutamate response modulation at 10 µM, profiling panel, selectivity assay for mGlu8/mGlu7 PAM project, cell-based, calcium fluorescence, glutamate curve fold shift (AID 743419); assay type: functional
[12] = molecular target: T1, Metabotropic glutamate receptor 4; experiment: agonist response potentiation at mGlu4 receptor – cell-based, GIRK thallium flux, mechanism study for group III mGlu PAM project, late-stage follow-up (AID 743466); assay type: functional
[13] = molecular target: T2, Metabotropic glutamate receptor 7; experiment: glutamate curve shift by mGlu7 potentiators, cell-based, rat, GIRK per title (AID 743386); assay type: functional
[14] = molecular target: Metabotropic glutamate receptor 2 (Homo sapiens, UniProt Q14416); experiment: mGlu2 agonist response modulation at 10 µM, profiling panel, selectivity assay for mGlu8/mGlu7 PAM project, cell-based, GIRK thallium flux, agonist curve fold shift (AID 743433); assay type: functional
[15] = molecular target: Metabotropic glutamate receptor 8 (Homo sapiens, UniProt O00222); experiment: Fold shift mGlu8 using GIRK assay.; assay type: functional
[16] = molecular target: Diphosphomevalonate decarboxylase (Streptococcus pneumoniae serotype 2 (strain D39 / NCTC 7466), UniProt Q9FD53); experiment: S. pneumoniae DPM-DC inhibition retest, confirmation, biochemical, cuvette format, coupled NADH fluorescence (AID 1028); assay type: functional
[17] = molecular target: Mitogen-activated protein kinase 10 (Homo sapiens, UniProt P53779); experiment: Dose response biochemical screening assay for inhibitors of c-Jun N-Terminal Kinase 3 (JNK3). [Related pubchem assays: 746 ]
[18] = Vero cell cytotoxicity, dose response, cytotoxicity control for Vif-APOBEC3G degradation inhibitor project, Vero cells (AID 1117358); assay type: functional; conditions: Human immunodeficiency virus 1, Vero
Protein Tat = Protein Tat (Human immunodeficiency virus type 1 group M subtype B (isolate HXB2)(HIV-1), UniProt P04608); assay type: functional;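 note: tat binding to TAR RNA read out by fluorescence polarization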
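Throughout, for AC50: cells exposed to compound for roughly 70 hours or longer before luminescence read.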

T1 sequence (Q14833 whole entry): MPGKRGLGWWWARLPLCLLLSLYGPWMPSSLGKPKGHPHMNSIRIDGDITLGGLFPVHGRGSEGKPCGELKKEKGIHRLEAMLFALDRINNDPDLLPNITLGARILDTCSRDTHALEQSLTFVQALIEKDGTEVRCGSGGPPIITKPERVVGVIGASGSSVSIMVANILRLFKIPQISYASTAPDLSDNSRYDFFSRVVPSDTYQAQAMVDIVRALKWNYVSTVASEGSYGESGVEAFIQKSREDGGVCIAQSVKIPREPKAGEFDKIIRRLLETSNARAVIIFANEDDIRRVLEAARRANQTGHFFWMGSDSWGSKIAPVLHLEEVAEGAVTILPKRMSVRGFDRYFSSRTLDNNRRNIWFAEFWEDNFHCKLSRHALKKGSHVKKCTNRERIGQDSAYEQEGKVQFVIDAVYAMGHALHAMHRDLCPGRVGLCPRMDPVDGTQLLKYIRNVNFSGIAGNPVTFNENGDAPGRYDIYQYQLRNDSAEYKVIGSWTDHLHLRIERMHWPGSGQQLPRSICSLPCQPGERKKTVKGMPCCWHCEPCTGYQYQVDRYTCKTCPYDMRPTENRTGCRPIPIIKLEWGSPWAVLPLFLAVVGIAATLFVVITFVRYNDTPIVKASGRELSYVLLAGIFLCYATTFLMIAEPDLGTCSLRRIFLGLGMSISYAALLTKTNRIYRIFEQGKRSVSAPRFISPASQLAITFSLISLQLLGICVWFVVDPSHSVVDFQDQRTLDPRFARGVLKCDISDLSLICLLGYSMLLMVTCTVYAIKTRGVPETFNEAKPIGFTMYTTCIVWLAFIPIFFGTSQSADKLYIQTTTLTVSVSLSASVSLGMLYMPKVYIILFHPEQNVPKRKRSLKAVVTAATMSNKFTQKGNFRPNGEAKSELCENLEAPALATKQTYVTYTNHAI
T2 sequence (Q14831 whole entry): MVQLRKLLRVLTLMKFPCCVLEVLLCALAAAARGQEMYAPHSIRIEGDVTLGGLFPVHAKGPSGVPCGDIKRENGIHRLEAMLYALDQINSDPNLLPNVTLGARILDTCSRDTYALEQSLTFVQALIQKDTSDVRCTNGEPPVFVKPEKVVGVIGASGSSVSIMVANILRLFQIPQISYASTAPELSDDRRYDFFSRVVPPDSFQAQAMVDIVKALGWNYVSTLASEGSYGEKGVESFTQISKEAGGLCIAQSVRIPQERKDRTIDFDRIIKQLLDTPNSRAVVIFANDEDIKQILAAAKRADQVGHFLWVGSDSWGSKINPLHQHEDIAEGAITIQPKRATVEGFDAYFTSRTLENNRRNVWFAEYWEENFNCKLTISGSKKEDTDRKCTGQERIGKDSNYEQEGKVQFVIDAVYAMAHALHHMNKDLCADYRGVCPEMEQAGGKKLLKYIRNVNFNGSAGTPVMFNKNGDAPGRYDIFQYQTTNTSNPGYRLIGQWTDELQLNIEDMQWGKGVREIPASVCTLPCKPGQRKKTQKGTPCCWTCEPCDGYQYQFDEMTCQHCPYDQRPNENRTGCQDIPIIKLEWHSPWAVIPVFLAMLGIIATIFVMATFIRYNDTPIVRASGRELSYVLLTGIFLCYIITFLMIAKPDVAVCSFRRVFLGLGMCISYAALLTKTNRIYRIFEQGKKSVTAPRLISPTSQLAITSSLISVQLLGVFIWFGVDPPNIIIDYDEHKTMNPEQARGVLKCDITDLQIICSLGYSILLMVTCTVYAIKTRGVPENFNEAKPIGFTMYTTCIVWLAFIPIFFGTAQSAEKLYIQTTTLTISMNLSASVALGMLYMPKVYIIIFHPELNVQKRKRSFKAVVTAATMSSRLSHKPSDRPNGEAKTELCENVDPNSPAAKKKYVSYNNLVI
Mitogen-activated protein kinase 10, sequence (P53779 whole entry): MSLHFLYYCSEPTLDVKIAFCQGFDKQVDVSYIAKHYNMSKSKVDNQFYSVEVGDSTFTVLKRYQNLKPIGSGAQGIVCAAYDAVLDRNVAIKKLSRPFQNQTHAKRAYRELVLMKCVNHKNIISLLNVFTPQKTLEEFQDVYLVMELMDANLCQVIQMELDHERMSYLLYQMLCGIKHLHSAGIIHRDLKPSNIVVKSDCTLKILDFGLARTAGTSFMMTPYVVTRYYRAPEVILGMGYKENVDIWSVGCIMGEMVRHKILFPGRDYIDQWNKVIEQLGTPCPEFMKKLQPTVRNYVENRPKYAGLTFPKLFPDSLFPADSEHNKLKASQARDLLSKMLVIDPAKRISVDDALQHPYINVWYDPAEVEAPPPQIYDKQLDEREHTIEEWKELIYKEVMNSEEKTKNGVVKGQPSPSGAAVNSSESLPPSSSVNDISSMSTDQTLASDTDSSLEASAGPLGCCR
Metabotropic glutamate receptor 5, sequence (P41594 whole entry): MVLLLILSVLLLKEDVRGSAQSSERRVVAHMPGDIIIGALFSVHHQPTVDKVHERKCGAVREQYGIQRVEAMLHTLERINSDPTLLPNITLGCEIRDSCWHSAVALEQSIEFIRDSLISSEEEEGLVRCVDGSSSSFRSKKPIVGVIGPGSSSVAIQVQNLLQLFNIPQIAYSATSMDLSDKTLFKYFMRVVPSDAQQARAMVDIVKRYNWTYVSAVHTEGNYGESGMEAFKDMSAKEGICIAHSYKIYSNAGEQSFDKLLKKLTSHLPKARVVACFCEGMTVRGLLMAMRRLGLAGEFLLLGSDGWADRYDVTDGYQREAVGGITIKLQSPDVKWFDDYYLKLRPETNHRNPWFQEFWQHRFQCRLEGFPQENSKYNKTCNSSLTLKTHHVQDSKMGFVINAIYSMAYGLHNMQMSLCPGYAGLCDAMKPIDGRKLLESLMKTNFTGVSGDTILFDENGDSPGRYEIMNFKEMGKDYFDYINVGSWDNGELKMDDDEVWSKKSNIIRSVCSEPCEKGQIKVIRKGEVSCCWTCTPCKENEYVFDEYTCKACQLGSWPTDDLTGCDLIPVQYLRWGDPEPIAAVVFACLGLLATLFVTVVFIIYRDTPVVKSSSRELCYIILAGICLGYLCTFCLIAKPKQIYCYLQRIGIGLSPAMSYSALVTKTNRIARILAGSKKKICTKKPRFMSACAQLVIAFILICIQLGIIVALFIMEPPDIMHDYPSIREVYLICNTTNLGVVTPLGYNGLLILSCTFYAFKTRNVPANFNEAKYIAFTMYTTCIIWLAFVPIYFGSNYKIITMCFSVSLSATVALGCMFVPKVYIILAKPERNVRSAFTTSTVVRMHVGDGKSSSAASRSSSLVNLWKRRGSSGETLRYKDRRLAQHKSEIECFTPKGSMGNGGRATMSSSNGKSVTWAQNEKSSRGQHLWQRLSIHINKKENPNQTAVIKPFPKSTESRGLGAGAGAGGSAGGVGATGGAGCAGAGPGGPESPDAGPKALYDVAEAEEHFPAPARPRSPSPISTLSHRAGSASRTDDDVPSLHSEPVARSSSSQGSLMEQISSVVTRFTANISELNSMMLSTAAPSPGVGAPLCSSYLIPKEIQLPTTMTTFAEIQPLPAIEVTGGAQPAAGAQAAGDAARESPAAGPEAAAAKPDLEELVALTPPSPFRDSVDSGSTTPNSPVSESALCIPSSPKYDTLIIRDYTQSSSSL
Neuropeptide Y receptor type 1, sequence (P25929 whole entry): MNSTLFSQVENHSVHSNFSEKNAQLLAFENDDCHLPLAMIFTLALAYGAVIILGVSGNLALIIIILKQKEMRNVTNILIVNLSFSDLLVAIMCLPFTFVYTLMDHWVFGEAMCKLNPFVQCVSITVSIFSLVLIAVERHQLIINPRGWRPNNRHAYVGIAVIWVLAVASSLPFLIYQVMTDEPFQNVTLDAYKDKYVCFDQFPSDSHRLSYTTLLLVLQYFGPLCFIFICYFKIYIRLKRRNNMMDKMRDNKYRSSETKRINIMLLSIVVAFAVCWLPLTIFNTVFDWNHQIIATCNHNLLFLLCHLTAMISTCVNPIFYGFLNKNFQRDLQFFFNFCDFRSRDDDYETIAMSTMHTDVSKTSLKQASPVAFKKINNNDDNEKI
Metabotropic glutamate receptor 8, sequence (O00222 whole entry): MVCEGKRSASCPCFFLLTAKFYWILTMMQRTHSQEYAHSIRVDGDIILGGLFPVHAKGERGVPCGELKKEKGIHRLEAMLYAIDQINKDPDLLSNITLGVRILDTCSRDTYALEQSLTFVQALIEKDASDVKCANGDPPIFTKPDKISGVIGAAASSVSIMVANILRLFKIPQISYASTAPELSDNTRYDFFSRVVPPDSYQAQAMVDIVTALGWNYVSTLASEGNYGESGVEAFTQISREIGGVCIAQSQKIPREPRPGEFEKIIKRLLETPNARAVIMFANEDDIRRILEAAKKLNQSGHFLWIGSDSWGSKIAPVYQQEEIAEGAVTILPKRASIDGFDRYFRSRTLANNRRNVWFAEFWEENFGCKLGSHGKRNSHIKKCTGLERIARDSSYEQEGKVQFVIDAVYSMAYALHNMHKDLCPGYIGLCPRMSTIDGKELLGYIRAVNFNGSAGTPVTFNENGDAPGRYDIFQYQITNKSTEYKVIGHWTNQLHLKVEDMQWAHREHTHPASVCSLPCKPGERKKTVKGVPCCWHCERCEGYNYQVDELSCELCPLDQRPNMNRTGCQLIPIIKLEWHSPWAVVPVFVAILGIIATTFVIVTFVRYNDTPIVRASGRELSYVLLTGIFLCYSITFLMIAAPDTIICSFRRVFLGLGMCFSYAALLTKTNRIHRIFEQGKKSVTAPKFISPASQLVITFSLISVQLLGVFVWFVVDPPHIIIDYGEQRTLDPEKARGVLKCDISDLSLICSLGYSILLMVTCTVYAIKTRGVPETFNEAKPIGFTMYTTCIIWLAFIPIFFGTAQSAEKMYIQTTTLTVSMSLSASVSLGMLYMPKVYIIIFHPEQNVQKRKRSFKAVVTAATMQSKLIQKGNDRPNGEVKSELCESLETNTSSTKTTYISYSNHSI
Protein Tat, sequence (P04608 whole entry): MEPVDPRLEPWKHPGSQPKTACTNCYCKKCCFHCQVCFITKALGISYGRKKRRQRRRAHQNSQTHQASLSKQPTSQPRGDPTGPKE

- IC50 [1]: > 50 µM (not active)
Structure (SMILES): CCCCn1c2c(c3ccccc31)CCc1nonc1-2

Structure (SMILES): CN1CCN(c2ccccc2NC(=O)c2ccc(-c3ccc(Cl)cc3Cl)o2)CC1
- IC50 [2]: > 12 µM (not active)
- EC50 [3]: 1.06 µM (active)
- IC50 [4]: 4.46 µM (active)
- EC50 [5]: > 60 µM (not active)
- AC50 [6]: 3.09 µM (active)

- EC50 [7]: 1.78 µM (active)
- EC50 [8]: 0.39 µM (active)
- EC50 [9]: 16.2 µM (active)
- EC50 [10]: 0.18 µM (inactive)
- EC50 [11]: 0.35 µM (inactive)
- EC50 [12]: 4.1 µM (inactive)
- EC50 [13]: 28.4 µM (active)
- EC50 [14]: 0.37 µM (inactive)
- EC50 [15]: 0.73 µM
Structure (SMILES): COC(=O)c1ccc(-n2c(C)cc(C(=O)CSc3ccc(NC(C)=O)cc3)c2C)cc1

Structure (SMILES): CCCNC(=O)c1ccccc1-n1sc2ccccc2c1=O
- IC50 [16]: 31.3 µM (active)

- IC50 [17]: 23.2 µM (not active)
Structure (SMILES): COc1ccc(C(=O)NCc2nc3ccccc3[nH]2)cc1OC

- IC50 (Protein Tat): > 100 µM (active)
Structure (SMILES): CN1CCc2nc3ccc(Cl)cc3c(-c3ccccc3Cl)c2C1
- CC50 [18]: > 40 µM (active)
